What was measured:
Mce1(1-210)p = biological target: T1, Mce1(1-210)p (Mus musculus, UniProt O55236); conditions: at 0.5 mM divalent cation; 50 mM Tris buffer; cited from earlier work
T1 construct: The N-terminal portion of Mce1p from residues 1-210 is an autonomous RNA triphosphatase domain; made in house; host or cells: bacteria
T1 sequence (O55236 1-210): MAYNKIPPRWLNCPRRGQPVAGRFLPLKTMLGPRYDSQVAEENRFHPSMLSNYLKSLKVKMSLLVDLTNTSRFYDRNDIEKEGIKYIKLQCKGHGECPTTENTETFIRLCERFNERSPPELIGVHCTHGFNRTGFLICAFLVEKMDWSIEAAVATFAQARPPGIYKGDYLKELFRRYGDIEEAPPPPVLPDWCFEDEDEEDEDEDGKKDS

Hcm1p = biological target: T2, Hcm1p (Homo sapiens, UniProt O43148); experiment: Cap methyltransferase activity of recombinant Hcm1p, methylation of cap-labeled poly(A); type: biochemical
T2 construct: Δ120 retained 50% of the activity of full-length Hcm1p; His-tag (histidine-rich leader segment, pET16b) (N); made in house; host or cells: Escherichia coli BL21(DE3)
T2 sequence (O43148 whole entry): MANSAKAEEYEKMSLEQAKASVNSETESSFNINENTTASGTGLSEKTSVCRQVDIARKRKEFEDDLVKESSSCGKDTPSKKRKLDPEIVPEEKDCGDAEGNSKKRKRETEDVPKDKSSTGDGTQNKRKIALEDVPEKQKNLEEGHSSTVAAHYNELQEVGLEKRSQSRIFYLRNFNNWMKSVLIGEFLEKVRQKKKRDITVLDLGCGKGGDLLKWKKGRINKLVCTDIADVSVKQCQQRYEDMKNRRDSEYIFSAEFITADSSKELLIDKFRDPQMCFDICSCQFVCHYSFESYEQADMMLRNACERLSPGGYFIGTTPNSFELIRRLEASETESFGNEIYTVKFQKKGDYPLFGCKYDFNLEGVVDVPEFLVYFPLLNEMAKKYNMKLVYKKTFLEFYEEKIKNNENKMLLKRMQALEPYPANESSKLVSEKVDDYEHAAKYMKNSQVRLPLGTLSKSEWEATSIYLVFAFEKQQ

LEF-4 = LEF-4 (Autographa californica nuclear polyhedrosis virus, UniProt P41477); conditions: reported value; read-out: Km for ATP; cited from earlier work
Sequence of LEF-4 (P41477 whole entry): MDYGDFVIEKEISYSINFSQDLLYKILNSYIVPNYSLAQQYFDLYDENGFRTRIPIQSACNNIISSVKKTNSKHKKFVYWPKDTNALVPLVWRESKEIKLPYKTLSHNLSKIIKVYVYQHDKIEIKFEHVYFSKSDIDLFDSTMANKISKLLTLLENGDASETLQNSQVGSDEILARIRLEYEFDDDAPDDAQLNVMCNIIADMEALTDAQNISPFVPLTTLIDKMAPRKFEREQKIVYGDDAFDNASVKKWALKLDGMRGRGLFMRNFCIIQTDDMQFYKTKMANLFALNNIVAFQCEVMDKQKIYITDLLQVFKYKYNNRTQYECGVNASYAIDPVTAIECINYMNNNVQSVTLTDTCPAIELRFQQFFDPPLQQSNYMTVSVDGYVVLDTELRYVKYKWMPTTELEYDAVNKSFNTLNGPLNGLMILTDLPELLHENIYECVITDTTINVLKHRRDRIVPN

vaccinia triphosphatase = vaccinia triphosphatase (Vaccinia virus, UniProt P04298); conditions: reported value; read-out: Km for ATP; cited from earlier work

SMILES: [Cl][Mn][Cl] [MnCl2]
- inhibition of RNA triphosphatase activity (Mce1(1-210)p): 75%

SMILES: Nc1ncnc2c1ncn2[C@@H]1O[C@H](CSCC[C@H](N)C(=O)O)[C@@H](O)[C@H]1O [AdoHcy, S-adenosylhomocysteine]
- effect on cap methylation in the presence of AdoMet (Hcm1p; 500 μM AdoHcy plus 50 μM AdoMet (FIG. 9, lane 4)): partially inhibitory

SMILES: C[S+](CC[C@H](N)C(=O)O)C[C@H]1O[C@@H](n2cnc3c(N)ncnc32)[C@H](O)[C@@H]1O (stereo partly shown) [AdoMet, S-adenosylmethionine]
- Km (Hcm1p; read-out: AdoMet concentration giving half-maximal activity, cap methylation as a function of AdoMet concentration): ~25 µM

SMILES: [Cl-].[Cl-].[Mg+2] [MgCl2]
- inhibition of RNA triphosphatase activity (Mce1(1-210)p): 75%
- reduction of methylation (Hcm1p; 1 mM magnesium): an order of magnitude

SMILES: Nc1ncnc2c1ncn2[C@@H]1O[C@H](COP(=O)(O)OP(=O)(O)OP(=O)(O)O)[C@@H](O)[C@H]1O [ATP]
- Km (LEF-4): 43 µM
- Km (vaccinia triphosphatase): 800 µM
